Results reported in ChEMBL document CHEMBL6120958, “A Highly Atom-Efficient Prodrug Approach to Generate Synergy between H2S and Nonsteroidal Anti-inflammatory Drugs and Improve Safety” (J Med Chem, 2024).
Activity calls are given as the source filed them. The rule behind the calls is not given here.

Key:
[1] = Stability of the compound in PBS at 500 uM measured for 3 months at pH 7.4 at -20 degC by HPLC analysis; type: physicochemical; details: buffer, pH 7.4, 2190 h
[2] = Stability of the compound in PBS at 500 uM measured within 144 hrs at pH 7.4 at 37 degC by HPLC analysis; type: physicochemical; details: buffer, pH 7.4, 144 h
Liver carboxylesterase [3] = target: T1, Liver carboxylesterase (Sus scrofa, UniProt Q29550); test: Prodrug release in PBS assessed as porcine liver esterase-mediated hydrolysis by measuring peak H2S concentration at 500 uM measured at pH 7.4 after 40 mins by methylene blue method; type: ADME; details: pig, isolated protein, pH 7.4, 40 min
T1 sequence (Q29550 whole entry): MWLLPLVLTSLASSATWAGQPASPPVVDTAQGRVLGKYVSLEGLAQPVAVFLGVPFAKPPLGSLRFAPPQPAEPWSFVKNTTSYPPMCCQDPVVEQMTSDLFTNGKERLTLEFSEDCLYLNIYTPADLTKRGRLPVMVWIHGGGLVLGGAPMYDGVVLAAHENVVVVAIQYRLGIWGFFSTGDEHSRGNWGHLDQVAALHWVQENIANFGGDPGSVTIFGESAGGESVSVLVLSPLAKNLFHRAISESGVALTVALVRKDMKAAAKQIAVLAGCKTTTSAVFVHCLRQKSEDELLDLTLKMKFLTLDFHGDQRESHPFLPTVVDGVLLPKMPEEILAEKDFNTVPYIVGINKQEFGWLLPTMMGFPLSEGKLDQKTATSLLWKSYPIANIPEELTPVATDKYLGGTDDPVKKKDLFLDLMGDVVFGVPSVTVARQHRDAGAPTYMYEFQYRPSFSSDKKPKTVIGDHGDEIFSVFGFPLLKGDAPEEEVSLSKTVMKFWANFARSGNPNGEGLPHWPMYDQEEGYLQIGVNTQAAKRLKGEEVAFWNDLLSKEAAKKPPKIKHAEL

Liver carboxylesterase [4] = target: T1, Liver carboxylesterase; test: Prodrug release in PBS assessed as porcine liver esterase-mediated hydrolysis by measuring half-life at 500 uM measured at pH 7.4 by HPLC analysis; type: ADME; details: pig, isolated protein, pH 7.4, 500 µM
Mus musculus [5] = test: (§1) Protection against ischemia/reperfusion injury in middle cerebral artery occlusion C57BL/6J mouse model assessed as decrease in malondialdehyde level in brain at 100 umol/kg, iv administered within initial 20 mins of ischemia period followed by reperfusion for 24 hrs after 1 hr and 20 mins of ischemia period and measured at 24 hrs post-reperfusion; type: functional, organism-based; details: dose 100.0 µmol/kg, time 2960.0 min
Mus musculus [6] = test: as §1, with “infarct size” for “malondialdehyde level”, “post-reperfusion by TTC staining based analysis” for “post-reperfusion”; type: functional, organism-based; details: dose 100.0 µmol/kg, time 2960.0 min
Liver carboxylesterase [7] = target: T1, Liver carboxylesterase; test: Prodrug release in PBS assessed as porcine liver esterase-mediated hydrolysis by measuring peak H2S concentration at 500 uM measured at pH 7.4 after 90 mins by methylene blue method; type: ADME; details: pig, isolated protein, pH 7.4, 1.5 h
[8] = Stability of the compound in rat plasma assessed as half life by LC-MS/MS analysis; type: ADME, cell-free
[9] = target: T2, Prostaglandin G/H synthase 1 (Ovis aries, UniProt P05979); test: Inhibition of ovine COX1 assessed as reduction in PGF2alpha production using arachidonic acid as substrate preincubated with enzyme for 10 mins followed by substrate addition and measured after 2 mins by ELISA
T2 sequence (P05979 whole entry): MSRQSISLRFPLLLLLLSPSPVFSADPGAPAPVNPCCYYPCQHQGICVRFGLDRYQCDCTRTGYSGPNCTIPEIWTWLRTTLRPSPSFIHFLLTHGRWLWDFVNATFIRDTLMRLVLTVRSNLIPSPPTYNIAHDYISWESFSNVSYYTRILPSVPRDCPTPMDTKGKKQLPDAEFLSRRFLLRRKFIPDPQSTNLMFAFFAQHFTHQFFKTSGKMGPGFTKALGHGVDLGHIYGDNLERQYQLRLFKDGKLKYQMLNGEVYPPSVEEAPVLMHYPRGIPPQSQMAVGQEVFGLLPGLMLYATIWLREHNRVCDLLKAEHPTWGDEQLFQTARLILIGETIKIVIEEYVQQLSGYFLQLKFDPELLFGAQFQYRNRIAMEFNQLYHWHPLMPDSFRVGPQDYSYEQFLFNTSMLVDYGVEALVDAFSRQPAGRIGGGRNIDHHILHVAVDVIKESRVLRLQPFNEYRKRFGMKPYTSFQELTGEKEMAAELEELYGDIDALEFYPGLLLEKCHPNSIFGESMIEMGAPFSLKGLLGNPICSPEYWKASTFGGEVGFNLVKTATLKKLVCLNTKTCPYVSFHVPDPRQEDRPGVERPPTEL

Rattus norvegicus [10] = test: Antiinflammatory activity against collagen-induced arthritis Wistar rat model assessed as reduction in toe swelling at 33.7 umol/kg, po administered for 28 days via gavage; type: functional, organism-based; details: dose 33.7 µmol/kg, time 28.0 day
[11] = Toxicity against collagen-induced arthritis Wistar rat model assessed as uric acid level in serum at 33.7 umol/kg, po administered for 28 days; type: organism-based; details: in vivo, 672 h, dose 33.7 µmol/kg, time 28 day
Rattus norvegicus [12] = test: Antiinflammatory activity against collagen-induced arthritis Wistar rat model assessed as reduction in IL-1 beta level in serum at 33.7 umol/kg, po administered for 28 days via gavage by ELISA; type: functional, organism-based; details: dose 33.7 µmol/kg, time 28.0 day
[13] = Toxicity against collagen-induced arthritis Wistar rat model assessed as AST level in serum at 33.7 umol/kg, po administered for 28 days; type: organism-based; details: in vivo, 672 h, dose 33.7 µmol/kg, time 28 day
[14] = Toxicity against C57BL/6J mouse assessed as ALT level in serum at 506 umol/kg, ip measured after 24 hrs; type: organism-based; details: in vivo, dose 506 µmol/kg
[15] = Toxicity against collagen-induced arthritis Wistar rat model assessed as creatinine level in serum at 33.7 umol/kg, po administered for 28 days; type: organism-based; details: in vivo, 672 h, dose 33.7 µmol/kg, time 28 day
[16] = Toxicity against collagen-induced arthritis Wistar rat model assessed as glutathione level in liver at 33.7 umol/kg, po administered for 28 days; type: organism-based; details: in vivo, 672 h, dose 33.7 µmol/kg, time 28 day
[17] = Toxicity against collagen-induced arthritis Wistar rat model assessed as gastric ulcer area at 16.8 umol/kg, po administered for 28 days; type: organism-based; details: in vivo, 672 h, at 16.8 µmol/kg, time 28 day
[18] = Cardiotoxicity against Sprague-Dawley rat assessed as LDH level in serum at 13.5 mg/kg, ip administered for 6 days (reference value: 831.8 +/-23.1 U/L); type: toxicity, organism-based; details: in vivo, 144 h, time 6 day
Rattus norvegicus [19] = test: Antiinflammatory activity against collagen-induced arthritis Wistar rat model assessed as increase in IL-10 level in serum at 33.7 umol/kg, po administered for 28 days via gavage by ELISA; type: functional, organism-based; details: dose 33.7 µmol/kg, time 28.0 day
[20] = Oral bioavailability in Wistar rat at 10 mg/kg; type: ADME, organism-based; details: in vivo
[21] = Toxicity against C57BL/6J mouse assessed as AST level in serum at 506 umol/kg, ip measured after 24 hrs; type: organism-based; details: in vivo, dose 506 µmol/kg
[22] = Toxicity against collagen-induced arthritis Wistar rat model assessed as gastrointestinal tract damage by measuring ulcer area in stomach at 33.7 umol/kg, po administered for 28 days; type: organism-based; details: in vivo, 672 h, at 33.7 µmol/kg, time 28 day

Cc1ccc(C(=O)[S-])cc1.[Na+]
Stability [1]: Stable | Stability [2]: Stable

O=C([S-])Cc1ccccc1.[Na+]
Stability [1]: Stable | Stability [2]: Stable

O=C([S-])Cc1ccc2ccccc2c1.[Na+]
Stability [1]: Stable | Stability [2]: Stable

O=C([S-])CCc1ccccc1.[Na+]
Stability [1]: Stable | Stability [2]: Stable

O=C([S-])CCc1ccc(Cl)cc1.[Na+]
Stability [1]: Stable | Drug metabolism (Liver carboxylesterase [3]): 129 µM | Stability [2]: Stable | t1/2 (Liver carboxylesterase [4]): 0.0967 h

OC(=S)c1ccccc1
Activity (Mus musculus [5]): Active | Activity (Mus musculus [6]): Active; Comparable Efficacy To Na2S Observed

COc1ccc2c(c1)c(CC(=O)[S-])c(C)n2C(=O)c1ccc(Cl)cc1.[Na+]
Stability [1]: Stable | Stability [2]: Stable | Drug metabolism (Liver carboxylesterase [7]): 29 µM | half-life [8]: 21.3 h | IC50 [9]: 7.6 nM | t1/2 (Liver carboxylesterase [4]): 4.45 h

O=C(O)Cc1ccccc1Nc1c(Cl)cccc1Cl [DICLOFENAC]
Activity (Rattus norvegicus [10]): Active | Activity [11]: 165.6 µmol/L | Activity (Rattus norvegicus [12]): Active | Activity [13]: 75.3 U/L | Activity [14]: 76.9 U/L | Activity [15]: 342.6 µmol/L | Activity [16]: 0.8 µg/mg | Activity [17]: 0.09% | Activity [18]: 2249 U/L | Activity (Rattus norvegicus [19]): Active | bioavailability [20]: 75% | Activity [21]: 128.6 U/L | Activity [22]: 0.42%
